Laboratory results taken from patent US11542508B2, “Isolated polynucleotides and polypeptides and methods of using same for expressing an expression product of interest” (priority 2016, dated 2023).

What was measured:
AimR = AimR (Bacillus phage phi3T, UniProt P0DOE3); assay: ChIP-seq of His-tagged AimR on phage DNA; assay type: cell-based; conditions: 15 minutes after phage infection, with or without 1 μM peptide
Description: For the ChIP-seq experiments, B. subtilis cell cultures were grown in 100 ml to O.D of 0.1 in LB at 37° C. Following, 50 ml of culture was centrifuged at 4000 rpm for 10 minutes at room temperature. The pellets were then suspended with 25 ml LB either containing or lacking the peptide (SAIRGA, SEQ ID NO: 269) at a final concentration of 1 μM. The cultures were placed for an additional incubation hour at room temperature with shaking. The cultures were then infected with phage (MOI=0.5) having a final plaque forming units (PFU) of 5×10^7 PFU/ml phages. 15 minutes post phage infection the cultures were centrifuged at 3000 g for 5 minutes at 4° C. The supernatant was discarded and the pellets were resuspended with 1 ml of ice-cold 1×PBS (10 mM Phosphate, 137 mM NaCl, 2.7 mM KCl, pH of 7.4).
For the formaldehyde fixation of protein to DNA, the 1 ml PBS resuspended pellets were mixed with 62.5 μl formaldehyde (Thermoscientific 16% formaldehyde solution (w/v) methanol-free ampule) yielding a final formaldehyde concentration of 1% (w/v) within the solution. The formaldehyde-containing cell suspension was incubated at room temperature for 10 minutes with mild agitation. Following, 75 μl 2M Glycine (f.c. 150 mM) was added to quench residual formaldehyde. Glycine-containing samples were kept on ice for an additional 10 minutes followed by centrifugation at 5500 g for 1 minute at 4° C. […]

[1] = system: Bacillus subtilis BEST7003 containing Construct #1; assay: GFP reporter expression, Construct #1; assay type: cell-based; conditions: Construct #1, peptide 62.5 nM-1000 nM in LB
Description: (§1) Starter growths of wild type (WT) Bacillus subtilis BEST7003 strain and of Bacillus subtilis BEST7003 strains containing Construct #1 or Construct #2 were cultured in 3 ml Luria-Bertani (LB) broth until the growth curve indicated stationary phase. Following, the bacterial cells were diluted in a ratio of 1/100 in LB broth or LB broth supplemented with a SAIRGA (SEQ ID NO: 269) peptide at a concentration range of 62.5 nM-1000 nM. Optical density (O.D. at 600 nm) and GFP fluorescence levels (488 nm excitation/518 nm emission) were measured over time in a 96 wells plate using a TECAN Infinite 200 plate reader.

[2] = system: Bacillus subtilis BEST7003 containing Construct #2; assay: GFP reporter expression, Construct #2; assay type: cell-based; conditions: Construct #2, peptide 62.5 nM-1000 nM in LB
Description: as §1

phi3T = assay: Sequencing-based assay for lysogeny; assay type: cell-based, B. subtilis 168; conditions: 60 minutes post infection, phi3T MOI=2, peptide 1 μM; 18% (±3.3%) without peptide
Description: An overnight culture of bacteria was diluted 1/100 until reaching O.D 600 nm=0.1. Medium was replaced as described above [LB supplemented with 0.1 mM MnCl2 and 5 mM MgCl2 with or without SAIRGA (SEQ ID NO: 269)], and incubated for 1 hour at room temperature. Bacteria were infected by phi3T at multiplicity of infection (MOI)=2. Cell pellets were collected at 5, 10, 20 and 60 minutes post infection in the presence or absence of SAIRGA (SEQ ID NO: 269) peptide at 1 μM final concentration in the medium. DNA was extracted using QIAGEN DNeasy blood and tissue kit (CAT #69504) and subjected to Illumina-based whole genome sequencing on NextSeq500. The relative abundance of lysogens in each sample was estimated using the number of reads mapped to the uninterrupted integration site versus reads mapped to the integration junction spanning the prophage DNA on one end and the bacterial DNA on the other end.

Chain of AimR (P0DOE3 whole entry): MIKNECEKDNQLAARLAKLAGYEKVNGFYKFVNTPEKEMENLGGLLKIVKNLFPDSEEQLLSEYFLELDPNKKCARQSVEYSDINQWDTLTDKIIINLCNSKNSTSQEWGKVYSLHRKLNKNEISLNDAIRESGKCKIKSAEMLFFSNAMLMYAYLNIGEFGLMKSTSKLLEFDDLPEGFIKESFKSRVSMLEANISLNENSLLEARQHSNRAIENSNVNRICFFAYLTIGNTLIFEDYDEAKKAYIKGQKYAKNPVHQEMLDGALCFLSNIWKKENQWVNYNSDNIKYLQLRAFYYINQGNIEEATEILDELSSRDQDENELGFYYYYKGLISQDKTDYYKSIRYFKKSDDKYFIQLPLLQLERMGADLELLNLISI

**Q.** How did the “binding of AimR to its site in the phage genome (ChIP-seq)” value (AimR) turn out when `CC[C@H](C)[C@H](NC(=O)[C@H](C)NC(=O)[C@@H](N)CO)C(=O)N[C@@H](CCCNC(=N)N)C(=O)NCC(=O)N[C@@H](C)C(=O)O` [SAIRGA, Ser-Ala-Ile-Arg-Gly-Ala] was run?
**A.** this binding only occurred when the arbitrium peptide was absent

**Q.** And the “GFP fluorescence in presence of peptide” value [1]?
**A.** fluorescence gradually repressed in a manner proportional to the concentration of the peptide

**Q.** And the “GFP expression in presence of peptide” value [2]?
**A.** differential expression of GFP dependent on the concentration of the peptide

**Q.** And the bacteria lysogenized (phi3T)?
**A.** 48% (±7.9%)
